Laboratory results published in paper PMC8370201, “Amaryllidaceae Alkaloid Cherylline Inhibits the Replication of Dengue and Zika Viruses” (Antimicrobial Agents and Chemotherapy, 2021).

Legend:
DENV = test system: DENV; parameters: method as in PMID 20496087; settings: read-out: EC50, inhibition of DENV; cited from earlier work
DENV2 16881s = assay: Plaque assay, infectious titers of WT DENV2 16881s from Huh7.5 cells; assay type: cell-based, dengue virus (DENV); settings: AAs 50 μM, treated 2 hpi, supernatant 48 h later
Description: Huh7.5 cells were infected with DENV 16881s, ZIKV H/PF/2013, or ZIKV MR766 (MOI, 0.1) or left uninfected. […] Supernatants were harvested 2 days pi, and PFU were determined by plaque assay on VeroE6 cells. Cells incubated overnight (2 × 10^5 cells/well in 24-well plates) were infected with 10-fold serially diluted virus-containing supernatants for 2 h at 37°C. Inoculum was then replaced with MEM (Life Technologies) containing 1.5% carboxymethylcellulose (Millipore-Sigma). ZIKV- and DENV-infected cells were incubated for 5 and 7 days, respectively. One volume of 10% formaldehyde was added to the cells for fixation. Two hours later, cells were washed with tap water and stained with a 1% crystal violet/10% ethanol solution for 30 min. Wells were rinsed with tap water, and the number of plaques were counted to calculate virus titers.

ZIKV H/PF/2013 = assay: Plaque assay, infectious titers of WT ZIKV H/PF/2013 from Huh7.5 cells; assay type: cell-based, Zika virus (ZIKV); settings: treated 2 hpi, supernatant 48 h later
ZIKV MR766 = assay: Plaque assay, infectious titers of WT ZIKV MR766 from Huh7.5 cells; assay type: cell-based, Zika virus (ZIKV); settings: treated 2 hpi, supernatant 48 h later
DENVGFP [1] = assay: Time-of-drug-addition and -removal assays, DENVGFP in Huh7 cells; assay type: cell-based, dengue virus (DENV); settings: NITD008 10 μM
Description: For the time-of-drug-addition assay, at the time of infection, AAs were added in wells corresponding to 0 h. At 2 hpi, viral inoculum was removed from every well, and AAs were added back to wells corresponding to 0 h and 2 h. At 4, 7, 12, and 24 hpi, AAs or DMSO diluted in DMEM was added to the appropriate wells. After 72 h, cells were trypsinized and fixed in 4% formaldehyde to measure the percentage of infected cells on an FC500 MPL cytometer. Alternatively, pictures of Hoechst 33342-stained cells were acquired on an Axio Observer microscope. All assays were performed in triplicate.
At 2 hpi, plates were washed, and medium was replaced to remove remaining viruses in the supernatant. AAs were added back to all wells, except the ones corresponding to 2 h of treatment, in which fresh medium exclusive of any AA was added. Accordingly, after 4, 7, and 12 h of infection, the supernatant was replaced by fresh medium in corresponding wells. After 72 h of incubation, results were acquired as for the time-of-drug-addition assay. All assays were performed in triplicate.

PBMCs = assay: Cytotoxicity in PBMCs (ATP); assay type: cell-based, human; settings: 48 h posttreatment, cherylline 30 μM
Description: (§1) Where indicated for Huh7.5 and Vero E6 cells and PBMCs, cell viability was measured by monitoring of cellular ATP levels using the Cell-Titer GLO assay kit (Promega). Briefly, 10× 10^3 to 20 × 10^3 cells in 50 to 100 μl were seeded in 48-well or 96-well plates and cultured overnight. AAs were added at the designated concentrations for 24 or 48 h, as specified in the text. Then, 50 to 100 μl of room temperature Cell-Titer GLO reagent was added in each well to room temperature-equilibrated cell plates. Plates were rocked for 2 min and rested for 10 min, and the luminescence signal was measured using a microplate spectrophotometer (Biotek Synergy H1 or Tecan Spark multimode microplate reader). Viability was expressed as a fold change calculated using the value of DMSO-treated cells at each concentration; for each AA and CC50, values were determined.

Huh7 cells = assay: XTT cytotoxicity assay in Huh7 cells; assay type: cell-based, human; settings: 0.4 to 400 μM, 72 hours
Description: Cytotoxicity properties were titrated by metabolism monitoring using the XTT [2,3-bis-(2-methoxy-4-nitro-5-sulfophenyl)-2H-tetrazolium-5-carboxanilide] assay kit (Roche, Millipore Sigma), as described before ([24]). Briefly, Huh7 cells were seeded at 10 × 10^3 cells per well in 96-well plates. […] After 72 h of incubation, medium was replaced by phenol-free DMEM (Wisent) containing 0.3 mg/ml XTT, and cells were incubated for 4 h. Absorbance was measured at 450nm using a microplate spectrophotometer (Synergy H1, Biotek). Treatment conditions with 0.5% DMSO were used as the reference control. The percentage of cell viability was calculated at each concentration.

[2] = Cell viability (ATP, Cell-Titer GLO) in Huh7.5 cells; assay type: cell-based; settings: human, Huh7.5 cells; Huh7.5, ATP, 48 h posttreatment; read-out: CC50
Description: as §1

DENVR2A [3] = settings: CC50/EC50, Huh7.5
ZIKVR2A [4] = settings: CC50/EC50, Huh7.5
ZIKV NS5 RdRp = test system: ZIKV NS5 RdRp; parameters: method as in PMID 32452420; settings: 100 μM; cited from earlier work
West Nile virus NS5 = test system: West Nile virus NS5; parameters: method as in PMID 19062063; settings: cited from earlier work
DENVR2A [5] = assay: microbe, parasite or virus in culture; settings: Dengue virus, Huh7.5, read-out: EC50 (μM) for DENVR2A
ZIKVR2A [6] = assay: microbe, parasite or virus in culture; settings: Zika virus, Huh7.5, read-out: EC50 (μM) for ZIKVR2A, Huh7.5 cells, luciferase at 48 hpi
DENVGFP [7] = assay: DENVGFP reporter virus infection of Huh7 cells (flow cytometry / microscopy); settings: Huh7, treated 2 h before DENVGFP MOI 0.15, 72 hpi, at the chosen concentration

## COc1cc2c(cc1OC)-c1cc3ccc(OC)c(OC)c3c[n+]1CC2 [Palmatine]
DENV
  EC50: 26.4 µM

## C#C[C@@]1(O)[C@H](O)[C@@H](CO)O[C@H]1n1ccc2c(N)ncnc21 [NITD008, reference compound]
DENV2 16881s
  production of DENV infectious particles (words): completely hindered the production of infectious particles
ZIKV H/PF/2013
  production of ZIKV H/PF/2013 infectious particles (words): completely hindered the production of infectious particles
ZIKV MR766
  production of ZIKV MR766 infectious particles (words): completely hindered the production of infectious particles
DENVGFP [1]; added at 0, 2, 4, 7, or 12 hpi
  time of drug addition: effect on DENVGFP-infected Huh7 cells 72 hpi: abrogated GFP expression
DENVGFP [1]; added at 24 hpi, cherylline 50 μM
  time of drug addition: effect on DENVGFP-infected Huh7 cells 72 hpi: Low levels of infection rose
PBMCs
  cytotoxicity in PBMCs: cytotoxic in PBMCs

## O[C@H]1[C@H]2c3cc4c(cc3CN3CCC(=C[C@@H]1O)[C@H]23)OCO4 [Lycorine, lycorine]
Huh7 cells
  cytotoxic activity of AAs: cytotoxic
[2]
  CC50 at 48 h: 14.5 µM
DENVR2A [3]
  SI DENVR2A (therapeutic selectivity index): 90.6
ZIKVR2A [4]
  SI ZIKVR2A (therapeutic selectivity index): 35.4
ZIKV NS5 RdRp
  inhibition of ZIKV NS5 RdRp activity in vitro: 80%
West Nile virus NS5
  effect on West Nile virus NS5: no effect
DENVR2A [5]
  EC50: 0.16 µM
ZIKVR2A [6]
  EC50: 0.41 µM
DENVGFP [7]
  anti-DENV activity in screening (GFP microscopy, words): sharp decrease in DENV-GFP-infected cells
